A short description of data set [1]: limiting area and limiting radius of fatty acids. Format: physicochemical.
Source text: Fatty acids with one or two cis double bonds have this limiting area; while those with three or more cis double bonds have larger limiting areas. The saturated and trans fatty acids have limiting areas much smaller than this.
The conditions of data set [2]: cited from earlier work.
Data set [3] can be described thus: solubility of lithium fatty acid salts. Format: physicochemical.

For the compound `CCCCCCCC/C=C/CCCCCCCC(=O)O` [Elaidic, elaidic acid], the Limiting radius in data set [1] was 3.24 Å. Also, the pKa in data set [2] is given as 9.95. `CCCCC/C=C\C/C=C\CCCCCCCC(=O)O` [Linoleic, linoleic acid]: in data set [1], the Limiting radius amounted to 3.91 Å. Regarding `CCCCCCCC/C=C\CCCCCCCC(=O)O` [Oleic, oleic acid], in data set [1], the Limiting radius is recorded as 3.61 Å. Moreover, in data set [2], the pKa was 9.85. With `CCCCCCCCCCCCCCCCCC(=O)O` [Stearic, stearic acid], in data set [1], the Limiting radius was found to be 2.52 Å. For `CCCCCCCCCCCC(=O)[O-].[Li+]` [dodecanoate, lithium dodecanoate], in data set [3], the solubility entry is recorded as “higher solubility than that of oleic acid”.

For orientation: pKa means the negative logarithm of the acid dissociation constant.
